Key:
Experiment in all cases: relative viability (nuclei count vs DMSO), 5 days (fraction); higher = more cells survive
[1] = compound: C1=CC=C2C(=C1)N=C(S2)C(C#N)C3=NC(=NC=C3)NCCC4=CN=CC=C4
Summary of the method: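 Five library-drug doses, separated by factors of √10, were pinned into 1536-well plates holding lung cancer cell lines after an overnight stay at 37 °C. Cells were fixed, permeabilised and Hoechst-stained in one step after 5 days without medium change, then imaged at 4×. Viability compares treated-well with vehicle-well nuclei, counted in MetaXpress, as a median across plates. Passing plates had control CV below 25% and at least one doubling.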

[2] = compound: C1=CC=C2C(=C1)N=C(S2)C(C#N)C3=NC(=NC=C3)NCCC4=CN=CC=C4 + Cc1cc(Nc2cc(N3CCN(C)CC3)nc(Sc3ccc(NC(=O)C4CC4)cc3)n2)n[nH]1 [Tozasertib] (partner 0.1 µM)
Summary of the method: (§1)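 Nuclei were stained with Hoechst during a one-step fixation (final 0.05% Triton X-100, 1% formaldehyde, 1 ug/ml Hoechst) carried out 5 days after dosing, then counted on 4× images. The cells, lung cancer lines in 1536-well plates, had been dosed by pin tool the day after seeding with one drug alone or a fixed anchor-drug dose plus five library-drug doses (not always all listed) in √10 steps. Relative viability is the nuclei count in treated wells divided by that in vehicle wells, and each value is the median of duplicate plates.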

[3] = compound: C#Cc1cccc(Nc2ncnc3cc(OC)c(OCCCCCCC(=O)NO)cc23)c1 [CUDC-101] + COc1cc2c(Oc3ccc(NC(=O)C4(C(=O)Nc5ccc(F)cc5)CC4)cc3F)ccnc2cc1OCCCN1CCOCC1 [Foretinib] (partner 0.25 µM)
Summary of the method: as §1

[4] = compound: C#Cc1cccc(Nc2ncnc3cc(OC)c(OCCCCCCC(=O)NO)cc23)c1 [CUDC-101] + CS(=O)(=O)CCNCc1ccc(-c2ccc3ncnc(Nc4ccc(OCc5cccc(F)c5)c(Cl)c4)c3c2)o1 [Lapatinib] (partner 2 µM)
Summary of the method: as §1

Cell Line | relative viability ([1]; 0.005 µM) | relative viability ([1]; 0.01581 µM) | relative viability ([1]; 0.05 µM) | relative viability ([1]; 0.1581 µM) | relative viability ([1]; 0.5 µM) | relative viability ([2]; first compound 0.005 µM) | relative viability ([2]; first compound 0.01581 µM) | relative viability ([2]; first compound 0.05 µM) | relative viability ([2]; first compound 0.1581 µM) | relative viability ([2]; first compound 0.5 µM) | relative viability ([3]; first compound 0.01 µM) | relative viability ([3]; first compound 0.03162 µM) | relative viability ([3]; first compound 0.1 µM) | relative viability ([3]; first compound 0.3162 µM) | relative viability ([3]; first compound 1 µM) | relative viability ([4]; first compound 0.01 µM) | relative viability ([4]; first compound 0.03162 µM) | relative viability ([4]; first compound 0.1 µM) | relative viability ([4]; first compound 0.3162 µM) | relative viability ([4]; first compound 1 µM)
NCI-H2170 | 0.894 | 0.991 | 0.949 | 1 | 0.913 | 0.513 | 0.759 | 0.661 | 0.81 | 0.636 | 0.978 | 0.973 | 1.05 | 0.995 | 0.903 | 0.27 | 0.266 | 0.297 | 0.227 | 0.232
LU99A | 0.779 | 0.995 | 0.877 | 1.04 | 0.972 | 0.258 | 0.247 | 0.224 | 0.278 | 0.214 | 0.931 | 0.881 | 0.684 | 0.798 | 0.388 | 1.2 | 0.889 | 0.987 | 0.861 | 0.321
PC-3 [JPC-3] | 0.85 | 0.966 | 1.01 | 1.15 | 1.07 | 0.661 | 0.927 | 0.866 | 0.791 | 0.706 | 1.07 | 1 | 0.882 | 0.539 | 0.294 | 0.419 | 0.462 | 0.443 | 0.364 | 0.32
H3255 | 1.04 | 0.922 | 0.964 | 1.06 | 0.981 | 0.685 | 0.609 | 0.702 | 0.089 | 0.9 | 0.864 | 0.917 |  | 0.486 | 0.279 | 0.244 | 0.248 | 0.24 | 0.248 | 0.174
LXF-289 | 0.925 | 1.09 | 0.968 | 1.06 | 0.948 | 0.173 | 0.197 | 0.184 | 0.232 | 0.237 | 0.972 | 0.932 | 0.937 | 0.877 | 0.497 | 0.895 | 0.915 | 0.97 | 0.915 | 0.694
PC-14 | 0.919 | 1.07 | 0.95 | 1.15 | 0.902 | 0.573 | 0.667 | 0.554 | 0.631 | 0.45 | 0.939 | 0.745 | 0.495 | 0.628 | 0.21 | 0.328 | 0.282 | 0.315 | 0.321 | 0.171
NCI-H661 | 1.05 | 1.02 | 0.941 | 0.998 | 1.02 | 0.365 | 0.332 | 0.342 | 0.355 | 0.392 | 1.06 | 0.861 | 1.05 | 0.98 | 0.536 | 0.603 | 0.449 | 0.525 | 0.594 | 0.506
EKVX | 1.08 | 0.939 | 0.947 | 1.04 | 0.952 | 0.481 | 0.468 | 0.429 | 0.498 | 0.336 | 0.976 | 0.639 | 0.681 | 1.18 | 0.859 | 0.255 | 0.199 | 0.22 | 0.203 | 0.169
